Reference: patent US7704995B2 (Exelixis, Inc., priority 2003, dated 2010)
Read-outs that look alike come from different tables or passages of the source.

Target: T1, Chk1 (Homo sapiens, UniProt O14757)
T1 construct: purchased Upstate Biotechnology
T1 sequence (O14757 1-476): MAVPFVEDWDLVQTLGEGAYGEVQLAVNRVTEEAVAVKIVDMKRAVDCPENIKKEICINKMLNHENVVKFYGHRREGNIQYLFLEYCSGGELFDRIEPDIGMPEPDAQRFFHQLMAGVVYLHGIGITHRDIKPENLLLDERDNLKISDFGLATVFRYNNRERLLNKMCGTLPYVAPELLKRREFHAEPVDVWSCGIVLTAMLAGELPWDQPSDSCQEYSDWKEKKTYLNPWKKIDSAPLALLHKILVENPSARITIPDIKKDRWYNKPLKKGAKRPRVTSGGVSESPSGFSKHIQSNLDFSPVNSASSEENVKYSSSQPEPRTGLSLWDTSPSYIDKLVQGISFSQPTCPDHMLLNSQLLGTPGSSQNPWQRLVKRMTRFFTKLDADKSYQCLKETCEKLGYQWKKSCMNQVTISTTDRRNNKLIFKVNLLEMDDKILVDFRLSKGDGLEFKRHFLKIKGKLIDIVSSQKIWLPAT
Experiment: Chk1 kinase assay: incorporation of γ-33P ATP into immobilized myelin basic protein
Assay type: biochemical
Settings: read-out: Chk1 IC50
How it was run: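 Incorporation of γ-33P into myelin basic protein coated on plates was scintillation-counted after 1 h at room temperature, duplicate points. Unlabeled ATP was 10 μM with 10 nM Chk1, 30 μM with 20 nM Chk2; buffer Hepes pH 7.6, MgCl2, DTT, 1% DMSO. Output IC50, optionally converted to Ki.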

[1] = Table 11, Chk1 only, class symbols A-D

SMILES	IC50 [nM]	IC50 (Table 11, Chk1 only) [nM]	other results
CNC(=O)c1nc(-c2cccc(CNCc3cc(Cl)ccc3Cl)c2)cnc1N [Example 408, 3-amino-6-[3-({[(2,5-dichlorophenyl)methyl]amino}methyl)phenyl]-N-methylpyrazine-2-carboxamide]	50 to 1000	–	–
CNC(=O)c1nc(-c2cccc(C(=O)NNc3ccc(F)cc3F)c2)cnc1N [Example 433, 3-amino-6-(3-{[2-(2,4-difluorophenyl)hydrazino]carbonyl}phenyl)-N-methylpyrazine-2-carboxamide]	–	50 to 1000	–
CNC(=O)c1nc(-c2cccc(CN3Cc4ccccc4C3)c2)cnc1N [Example 416, 3-amino-6-[3-(1,3-dihydro-2H-isoindol-2-ylmethyl)phenyl]-N-methylpyrazine-2-carboxamide]	50 to 1000	–	–
Nc1ncc(-c2cccc(CNC(=O)c3ccc(Cl)cc3)c2)nc1C(=O)N[C@H]1CCCNC1 [Example 884, 3-amino-6-[3-({[(4-chlorophenyl)carbonyl]amino}methyl)phenyl]-N-[(3S)-piperidin-3-yl]pyrazine-2-carboxamide]	–	–	IC50 [1]: < 50 nM
CNC(=O)c1nc(-c2cccc(CNCc3ccc4c(c3)OCCO4)c2)cnc1N [Example 403, 3-amino-6-(3-{[(2,3-dihydro-1,4-benzodioxin-6-ylmethyl)amino]methyl}phenyl)-N-methylpyrazine-2-carboxamide]	50 to 1000	–	–
Cc1nnc(-c2nc(-c3cccc(CO)c3)cnc2N)[nH]1 [Example 550, {3-[5-amino-6-(5-methyl-4H-1,2,4-triazol-3-yl)pyrazin-2-yl]phenyl}methanol]	–	1000 to 10000	–
CNC(=O)c1nc(-c2cccc(CNC3CCc4cc(-c5ccoc5)ccc43)c2)cnc1N (stereo not drawn) [Example 480, 3-amino-6-(3-{[(5-furan-3-yl-2,3-dihydro-1H-inden-1-yl)amino]methyl}phenyl)-N-methylpyrazine-2-carboxamide]	–	< 50	–
CC(=O)c1nc(-c2cccc(CN[C@H]3CCc4ccccc43)c2)cnc1N [Example 531, 1-[3-amino-6-(3-{[(1S)-2,3-dihydro-1H-inden-1-ylamino]methyl}phenyl)pyrazin-2-yl]ethanone]	–	50 to 1000	–
Nc1ncc(-c2cccc(C(=O)NCc3c(F)cccc3Cl)c2)nc1C(=O)N[C@H]1CCCCNC1 [Example 1021, 3-amino-N-[(3S)-azepan-3-yl]-6-[3-({[(2-chloro-6-fluorophenyl)methyl]amino}carbonyl)phenyl]pyrazine-2-carboxamide]	–	–	IC50 [1]: < 50 nM
Nc1ncc(-c2cccc(CNC(=O)c3cc(F)cc(F)c3)c2)nc1-c1nc([C@H]2CCCNC2)n[nH]1 [Example 943, N-{[3-(5-amino-6-{3-[(3S)-piperidin-3-yl]-1H-1,2,4-triazol-5-yl}pyrazin-2-yl)phenyl]methyl}-3,5-difluorobenzamide]	–	–	IC50 [1]: < 50 nM
CCNCCOc1cccc(-c2cnc(N)c(C(=O)N[C@H]3CCCNC3)n2)c1 [Example 964, 3-amino-6-(3-{[2-(ethylamino)ethyl]oxy}phenyl)-N-[(3S)-piperidin-3-yl]pyrazine-2-carboxamide]	–	–	IC50 [1]: < 50 nM
CSc1ccccc1NC(=O)NCc1cccc(-c2cnc(N)c(C(=O)N[C@H]3CCCNC3)n2)c1 [Example 920, 3-amino-6-(3-{[({[2-(methylthio)phenyl]amino}carbonyl)amino]methyl}phenyl)-N-[(3S)-piperidin-3-yl]pyrazine-2-carboxamide]	–	–	IC50 [1]: < 50 nM
CNC(=O)c1nc(-c2cccc(CNCc3ccccc3-c3ccccc3)c2)cnc1N [Example 383, 3-amino-6-(3-{[(biphenyl-2-ylmethyl)amino]methyl}phenyl)-N-methylpyrazine-2-carboxamide]	50 to 1000	–	–
Nc1ncc(-c2cccc(C(=O)NCc3ccccc3OC(F)(F)F)c2)nc1C(=O)N[C@H]1CCCNC1 [Example 846, 3-amino-N-[(3S)-piperidin-3-yl]-6-(3-{[({2-[(trifluoromethyl)oxy]phenyl}methyl)amino]carbonyl}phenyl)pyrazine-2-carboxamide]	–	–	IC50 [1]: < 50 nM
CNC(=O)c1nc(-c2cccc(CNC3CCc4cc(-n5cncn5)ccc43)c2)cnc1N (stereo not drawn) [Example 512, 3-amino-N-methyl-6-[3-({[5-(1H-1,2,4-triazol-1-yl)-2,3-dihydro-1H-inden-1-yl]amino}methyl)phenyl]pyrazine-2-carboxamide]	–	50 to 1000	–
CNC(=O)c1nc(-c2cccc(C(=O)NCc3ccc(F)cc3)c2)cnc1N [Example 103, 3-amino-6-[3-({[(4-fluorophenyl)methyl]amino}carbonyl)phenyl]-N-methylpyrazine-2-carboxamide]	50 to 1000	–	–

SMILES	IC50 [nM]	IC50 (Table 11, Chk1 only) [nM]	other results
CNC(=O)c1nc(-c2ccc(S(C)(=O)=O)cc2)cnc1N [Example 87, 3-amino-N-methyl-6-[4-(methylsulfonyl)phenyl]pyrazine-2-carboxamide]	1000 to 10000	–	–
Nc1ncc(-c2cccc(C(=O)NCc3ccccc3)c2)nc1C(=O)NC1CCCCC1NC(=O)c1nc(-c2cccc(C(=O)NCc3ccccc3)c2)cnc1N (stereo not drawn) [Example 660, N,N′-cyclohexane-1,2-diylbis[3-amino-6-(3-{[(phenylmethyl)amino]carbonyl}phenyl)pyrazine-2-carboxamide]]	–	≥ 10000	–
CNC(=O)c1nc(-c2cccc(NC(=O)OCc3ccccc3)c2)cnc1N [Example 318, phenylmethyl (3-{5-amino-6-[(methylamino)carbonyl]pyrazin-2-yl}phenyl)carbamate]	50 to 1000	–	–
CNC(=O)c1nc(-c2cccc(S(=O)(=O)NCc3ccccc3)c2)cnc1N [Example 265, 3-amino-N-methyl-6-(3-{[(phenylmethyl)amino]sulfonyl}phenyl)pyrazine-2-carboxamide]	1000 to 10000	–	–
Nc1ncc(-c2cccc(C(=O)NCc3c(F)cccc3Cl)c2)nc1C(=O)NC1CC1 [Example 271, 3-amino-6-[3-({[(2-chloro-6-fluorophenyl)methyl]amino}carbonyl)phenyl]-N-cyclopropylpyrazine-2-carboxamide]	≥ 10000	–	–
Nc1ncc(-c2cccc(C(=O)NCCN3CCOCC3)c2)nc1C(=O)N[C@H]1CCCNC1 [Example 926, 3-amino-6-(3-{[(2-morpholin-4-ylethyl)amino]carbonyl}phenyl)-N-[(3S)-piperidin-3-yl]pyrazine-2-carboxamide]	–	–	IC50 [1]: 50 to 1000 nM
Nc1ncc(-c2cccc(CNS(=O)(=O)c3ccc(Cl)cc3)c2)nc1C(=O)N[C@H]1CCCNC1 [Example 955, 3-amino-6-[3-({[(4-chlorophenyl)sulfonyl]amino}methyl)phenyl]-N-[(3S)-piperidin-3-yl]pyrazine-2-carboxamide]	–	–	IC50 [1]: < 50 nM
CC(C)(C)OC(=O)N1CCC(N2CC[C@H](NC(=O)c3nc(-c4cccc(C(=O)NCc5ccccc5)c4)cnc3N)C2)CC1 [Example 686, 1,1-dimethylethyl 4-[(3S)-3-({[3-amino-6-(3-{[(phenylmethyl)amino]carbonyl}phenyl)pyrazin-2-yl]carbonyl}amino)pyrrolidin-1-yl]piperidine-1-carboxylate]	–	1000 to 10000	–
Nc1ncc(-c2cccc(CO)c2)nc1-c1nc(C2CCCNC2)n[nH]1 (stereo not drawn) [Example 625, {3-[5-amino-6-(3-piperidin-3-yl-1H-1,2,4-triazol-5-yl)pyrazin-2-yl]phenyl}methanol]	–	50 to 1000	–
CNC(=O)c1nc(-c2cccc(C(=O)NCc3cc(Cl)ccc3F)c2)cnc1N [Example 277, 3-amino-6-[3-({[(5-chloro-2-fluorophenyl)methyl]amino}carbonyl)phenyl]-N-methylpyrazine-2-carboxamide]	50 to 1000	–	–
CNC(=O)c1nc(-c2cccc(C(=O)NCCc3ccccc3)c2)cnc1N [Example 94, 3-amino-N-methyl-6-(3-{[(2-phenylethyl)amino]carbonyl}phenyl)pyrazine-2-carboxamide]	50 to 1000	–	–
Nc1ncc(-c2cccc(C(=O)NCc3ccccc3)c2)nc1/C=N/NCc1ccccc1 [Example 675, 3-(5-amino-6-{(E)-[(phenylmethyl)hydrazono]methyl}pyrazin-2-yl)-N-(phenylmethyl)benzamide]	–	≥ 10000	–
CNC(=O)c1nc(-c2noc(-c3ccccc3)n2)cnc1N [Example 69, 3-amino-N-methyl-6-(5-phenyl-1,2,4-oxadiazol-3-yl)pyrazine-2-carboxamide]	≥ 10000	–	–
CN1CCCC(c2n[nH]c(-c3nc(-c4cccc(C(=O)NCc5c(F)cccc5Cl)c4)cnc3N)n2)C1 (stereo not drawn) [Example 818, 3-{5-amino-6-[3-(1-methylpiperidin-3-yl)-1H-1,2,4-triazol-5-yl]pyrazin-2-yl}-N-[(2-chloro-6-fluorophenyl)methyl]benzamide]	–	–	IC50 [1]: 1000 to 10000 nM
CN1CCN(C(=O)c2nc(-c3cccc(C(=O)NCc4ccccc4)c3)cnc2N)CC1 [Example 573, 3-{5-amino-6-[(4-methylpiperazin-1-yl)carbonyl]pyrazin-2-yl}-N-(phenylmethyl)benzamide]	–	≥ 10000	–

The next lines start with results.

IC50 [nM]	IC50 (Table 11, Chk1 only) [nM]	SMILES	other results
–	≥ 10000	CCOC(=O)C1CCN(Cc2nc(-c3cccc(C(=O)NCc4ccccc4)c3)cnc2N)CC1 [Example 695, ethyl 1-{[3-amino-6-(3-{[(phenylmethyl)amino]carbonyl}phenyl)pyrazin-2-yl]methyl}piperidine-4-carboxylate]	–
–	1000 to 10000	CN1CCCC(c2n[nH]c(-c3nc(-c4cccc(CO)c4)cnc3N)n2)C1 (stereo not drawn) [Example 736, (3-{5-amino-6-[3-(1-methylpiperidin-3-yl)-1H-1,2,4-triazol-5-yl]pyrazin-2-yl}phenyl)methanol]	–
